A short description of data set [1]: Pharmacokinetic model: typical-rat PK from satellite PK experiments, oral dosing. It is filed as in vivo, rats. Conditions: Sprague-Dawley, plasma.
Data set [2] relates to telemetered rat (transitions between SLEEP and WAKE states). It is filed as in vivo, Male Sprague–Dawley rats.

Usually Cmax stands for the peak of the concentration-time curve. What is called Tmax is the time at which the peak concentration occurs. In general, EC50 refers to the concentration giving half of the maximal effect. A low value points to higher potency in that assay. `COC(=O)C(c1ccccc1)C1CCCCN1` (centres unmarked) [methylphenidate, Methylphenidate]: the values for the Cmax in data set [1] (3 mg), in data set [1] (10 mg) and in data set [1] (30 mg) were 44 nM, 146 nM and 438 nM, respectively. Besides, the Tmax in data set [1] (3 mg), in data set [1] (10 mg) and in data set [1] (30 mg) was 12 s in each case. In data set [2] (Rattus norvegicus, intensity v (SLEEP to WAKE, clearance of sleep), plasma concentration, mean (95% confidence limits)), this molecule showed an EC50 of 288 nM. Also, the “Teq,drug (equilibrium half-life plasma to effect compartment)” value in data set [2] (delay on intensity u (acquisition of sleep), mean (95% confidence limits)) is 24 (17, 40) min. For the same molecule, the “overall effect on sleep/wakefulness compared to placebo” value in data set [2] (rats, Figs. 4 and 6) is “tend to promote wakefulness”. In data set [2] (rats, from estimated maximum effects), the “relative potency in inducing sleep fragmentation, methylphenidate versus NCE” value is reported as “fivefold more potent”. Further, the “effect on the transitions between sleep states (intensities)” value in data set [2] (rats, sign of Emax values, Fig. 2) was “inhibit the transitions from one sleep status to another”.

The values above are taken from article PMC3215869 (Journal of Pharmacokinetics and Pharmacodynamics, 2011).
